Measured values as given in ChEMBL document CHEMBL1147303, “Antimicrobial tetraprenylphenols from Suillus granulatus” (1989).
Values after ≈ are worked out from the molar mass of the structure shown.

Tests used:
Type in all cases: functional
Enterococcus faecalis = assay: Antibacterial activity against Streptococcus faecalis by serial broth dilution assay
Escherichia coli = assay: Antibacterial activity against Escherichia coli ATCC 25922 by serial broth dilution assay
Aeromonas hydrophila = assay: Antibacterial activity against Aeromonas hydrophila by serial broth dilution assay
Bacillus subtilis = assay: Antibacterial activity against Bacillus subtilis by serial broth dilution assay
Hafnia alvei = assay: Antibacterial activity against Hafnia alvei by serial broth dilution assay
Staphylococcus aureus = assay: Antibacterial activity against Staphylococcus aureus ATCC 25923 by serial broth dilution assay
Micrococcus luteus = assay: Antibacterial activity against Micrococcus luteus ATCC 4698 by paper disc-agar diffusion assay
Proteus mirabilis = assay: Antibacterial activity against Proteus mirabilis by serial broth dilution assay

MIC (Enterococcus faecalis) [µg/mL] | MIC (Escherichia coli) [µg/mL] | MIC (Aeromonas hydrophila) [µg/mL] | MIC (Bacillus subtilis) [µg/mL] | MIC (Hafnia alvei) [µg/mL] | MIC (Staphylococcus aureus) [µg/mL] | MIC (Micrococcus luteus) [µg/mL] | MIC (Proteus mirabilis) [µg/mL] | Compound
100 (≈ 227 µM) | 50 (≈ 113 µM) | > 100 | > 100 | > 100 | > 100 | 50 (≈ 113 µM) | > 100 | CC(=O)Oc1c(O)ccc(O)c1C/C=C(\C)CC/C=C(\C)CC/C=C(\C)CCC=C(C)C
> 100 | > 100 | > 100 | > 100 | > 100 | > 100 | > 100 | > 100 | CC(C)=CCC/C(C)=C/CC/C(C)=C/CCC1(C)C=Cc2c(ccc(O)c2O)O1 (stereo not given)
> 100 | > 100 | > 100 | > 100 | > 100 | > 100 | 100 (≈ 242 µM) | > 100 | COc1ccc(O)c(O)c1C/C=C(\C)CC/C=C(\C)CC/C=C(\C)CCC=C(C)C
> 100 | 6.25 (≈ 14.2 µM) | 12.5 (≈ 28.4 µM) | > 100 | > 100 | > 100 | 50 (≈ 113 µM) | > 100 | CC(=O)Oc1c(O)cc(O)cc1C/C=C(\C)CC/C=C(\C)CC/C=C(\C)CCC=C(C)C
> 100 | 1.56 (≈ 3.78 µM) | 0.78 (≈ 1.89 µM) | > 100 | > 100 | > 100 | 6.25 (≈ 15.1 µM) | > 100 | COc1c(O)cc(O)cc1C/C=C(\C)CC/C=C(\C)CC/C=C(\C)CCC=C(C)C
